Test results taken from ChEMBL document CHEMBL4007385, “Prodrug approach: An overview of recent cases” (Eur J Med Chem, 2017).

Test: Oral bioavailability in human
Assay type: ADME, organism-based
Conditions: in vivo

For CCOC(=O)C1=C[C@@H](OC(CC)CC)[C@H](NC(C)=O)[C@@H](N)C1 [OSELTAMIVIR], the bioavailability was 80%.

Compound CCC(CC)O[C@@H]1C=C(C(=O)O)C[C@H](N)[C@H]1NC(C)=O [OSELTAMIVIR CARBOXYLATE] has a bioavailability of 5%.
